Read-outs that look alike come from different tables or passages of the source.
Key:
Ki-67 = system: Ki-67
Protocol: (§1) Pharmacodynamic markers were examined using peripheral blood samples, tumor and nevi biopsies (when available) and tumor imaging. BRAF mutation status was determined by Sanger sequencing. Pharmacodynamic markers analyzed, in available tumor/nevus samples obtained before treatment or archival tissue and during treatment on cycle 1, day 8 or day 15, including cytoplasmic p‐MEK, p‐ERK, BIM, c‐KIT, p‐AKT473, pS6 and PTEN, and nuclear p‐ERK, Ki‐67, PARP, cyclin D1, MITF, p27, and p53. Biomarker expression was determined by calculating the percentage of change in the H‐score (14) between on‐treatment and fresh/archival pretreatment specimens. Blood levels of VEGFR‐2 and were assessed before and at multiple time points while on treatment using enzyme‐linked immunosorbent assay (ELISA). […] Changes in standard uptake value (SUV) were determined by a blinded, independent central imaging review panel. Complete metabolic response (CMR) was complete resolution of tumor FDG‐PET uptake so SUV is the same as background. Partial metabolic response (PMR) decrease in sum of the tumor SUV of ≥25% from the baseline scan. Progressive metabolic disease (PMD) was defined as an increase in tumor SUV of ≥25% from the baseline scan, or the appearance of new FDG‐PET uptake in metastatic lesions. Stable metabolic disease (SMD) was defined as a change in tumor SUV between the PMR and PMD criteria.

[1] = system: tumor metabolic activity (SUV); assay: Metabolic tumor response by 18[F]-FDG-PET; assay type: in vivo, human
Protocol: as §1

Cn1c(Nc2ccc(C(F)(F)F)cc2)nc2cc(Oc3ccnc(-c4ncc(C(F)(F)F)[nH]4)c3)ccc21 [RAF265]
Ki67 % change vs pretreatment, Mean (SD) (Ki-67; All patients, n 23): -13.46 (50) %
Ki67 % change vs pretreatment, Median (Ki-67; All patients, n 23): -11.1%
Ki67 % change vs pretreatment, Mean (SD) (Ki-67; DL 5, n 2): 0%
Ki67 % change vs pretreatment, Median (Ki-67; DL 5, n 2): 0%
Ki67 decrease (Ki-67; DL 6): up to 51.8%
Ki67 % change vs pretreatment, Mean (SD) (Ki-67; DL 6, n 6): -47.93 (40.8) %
Ki67 % change vs pretreatment, Median (Ki-67; DL 6, n 6): -51.8%
Ki67 % change vs pretreatment, Mean (SD) (Ki-67; DLs 1 - 4, n 11): +0.21 (59) %
Ki67 % change vs pretreatment, Median (Ki-67; DLs 1 - 4, n 11): -11.1%
Ki67 % change vs pretreatment, Mean (SD) (Ki-67; DLs 7 and 7.1, n 4): -6.08 (20) %
Ki67 % change vs pretreatment, Median (Ki-67; DLs 7 and 7.1, n 4): -2.6%
PMR, patients ([1]; BRAF WT disease, C1D15, 1 of 29): 3.4%
PMR, patients ([1]; BRAF mutant tumors, C1D15, 8 of 33): 24.2%
PMR, patients ([1]; BRAF-WT disease, C1D28, 3 of 28): 10.7%
PMR, patients ([1]; BRAF-mutant tumors, C1D28, 8 of 28): 28.6%
partial metabolic response (PMR), patients ([1]; C1D15, 10 of 65): 15.4%
progressive metabolic disease (PMD), patients ([1]; C1D15, 65 patients): 13.8%
stable metabolic disease (SMD), patients ([1]; C1D15, 65 patients): 70.8%
partial metabolic response (PMR), patients ([1]; C1D28, 58 evaluable patients, all dose levels): 20.7%
progressive metabolic disease (PMD), patients ([1]; C1D28, 58 patients): 17.2%
stable metabolic disease (SMD), patients ([1]; C1D28, 58 patients): 62.1%
patients with RECIST-defined responses who also had partial metabolic response ([1]; in vivo): Five of eight
